# Measurements reported in paper PMC12073402, “A Selective MAP3K1 Inhibitor Facilitates Discovery of NPM1 as a Member of the Network” (Molecules, 2025).
# Assays:
# Assay in all cases: KiNativ kinome profiling in PANC-1 lysate
# Assay type in all cases: binding
# Wee1 = molecular target: T1, Wee1 (Homo sapiens, UniProt P30291); conditions: Lys2
# T1 construct: endogenous in cells; host or cells: PANC-1 cell lysate
# Procedure, shortened: (§1)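 PANC-1 lysates were incubated with 5 μM inhibitor or DMSO, then labeled with a desthiobiotin-ATP acyl-phosphate probe that biotinylates conserved kinase lysines. Tryptic peptides were streptavidin-enriched and quantified by LC-MS/MS, reported as % change in MS signal from duplicate treated and duplicate control samples.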
# PITSLRE = PITSLRE (Homo sapiens, UniProt P21127); conditions: Lys2
# Procedure, shortened: as §1
# p38b = molecular target: T2, p38b (Homo sapiens, UniProt Q15759); conditions: Other
# T2 construct: endogenous in cells; host or cells: PANC-1 cell lysate
# T2 sequence (Q15759 whole entry): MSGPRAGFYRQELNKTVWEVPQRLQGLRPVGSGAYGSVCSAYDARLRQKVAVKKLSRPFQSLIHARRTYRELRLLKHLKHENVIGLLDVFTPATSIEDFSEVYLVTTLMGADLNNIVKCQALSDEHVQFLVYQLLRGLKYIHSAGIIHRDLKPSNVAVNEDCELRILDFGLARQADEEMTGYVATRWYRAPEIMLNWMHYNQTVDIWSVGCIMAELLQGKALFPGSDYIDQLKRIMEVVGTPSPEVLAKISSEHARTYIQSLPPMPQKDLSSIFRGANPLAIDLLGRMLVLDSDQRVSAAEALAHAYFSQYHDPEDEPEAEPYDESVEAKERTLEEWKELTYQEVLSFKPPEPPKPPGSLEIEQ
# Procedure, shortened: as §1
# Erk1 = molecular target: T3, Erk1 (Homo sapiens, UniProt P27361); conditions: Lys2
# T3 construct: endogenous in cells; host or cells: PANC-1 lysate
# Procedure, shortened: as §1
# CLK2 = molecular target: T4, CLK2 (Homo sapiens, UniProt P49760); conditions: Lys2
# T4 construct: endogenous in cells; host or cells: PANC-1 cell lysate
# Procedure, shortened: as §1
# MST3, MST4, YSK1 = conditions: 5 µM; ATP Loop; LADFGVAGQLTDTQIKR
# Procedure, shortened: as §1
# AKT1 = molecular target: T5, AKT1 (Homo sapiens, UniProt P31749); conditions: ATP Loop
# T5 construct: endogenous in cells; host or cells: PANC-1 cell lysate
# Procedure, shortened: as §1
# SNRK = molecular target: T6, SNRK (Homo sapiens, UniProt Q9NRH2)
# T6 construct: endogenous in cells; host or cells: PANC-1 cell lysate
# T6 sequence (Q9NRH2 whole entry): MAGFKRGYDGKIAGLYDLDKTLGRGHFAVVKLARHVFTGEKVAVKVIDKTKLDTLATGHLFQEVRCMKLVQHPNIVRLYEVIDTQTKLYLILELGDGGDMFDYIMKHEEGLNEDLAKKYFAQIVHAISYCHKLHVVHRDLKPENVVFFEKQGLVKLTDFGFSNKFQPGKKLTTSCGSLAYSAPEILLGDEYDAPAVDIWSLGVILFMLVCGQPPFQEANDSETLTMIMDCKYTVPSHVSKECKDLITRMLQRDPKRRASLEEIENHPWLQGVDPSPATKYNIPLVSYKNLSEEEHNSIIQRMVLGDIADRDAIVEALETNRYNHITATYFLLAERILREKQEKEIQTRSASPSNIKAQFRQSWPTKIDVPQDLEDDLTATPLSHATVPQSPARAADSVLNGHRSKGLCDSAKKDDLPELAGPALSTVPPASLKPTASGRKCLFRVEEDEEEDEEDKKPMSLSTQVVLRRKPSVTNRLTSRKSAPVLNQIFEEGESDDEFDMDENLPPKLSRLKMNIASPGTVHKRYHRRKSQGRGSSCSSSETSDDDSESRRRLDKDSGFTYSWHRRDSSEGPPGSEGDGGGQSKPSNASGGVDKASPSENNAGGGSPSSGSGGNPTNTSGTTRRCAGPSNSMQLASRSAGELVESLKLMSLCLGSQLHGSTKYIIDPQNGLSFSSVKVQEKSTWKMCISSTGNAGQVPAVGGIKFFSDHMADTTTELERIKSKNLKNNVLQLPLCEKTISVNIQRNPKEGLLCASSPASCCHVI
# Procedure, shortened: as §1
# RSK1 domain2 = molecular target: T7, RSK1 domain2 (Homo sapiens, UniProt Q15418); conditions: Lys2
# T7 construct: endogenous in cells; host or cells: PANC-1 cell lysate
# Procedure, shortened: as §1
# BRAF, RAF1 = conditions: 5 µM; Activation Loop; IGDFGLATVKSR
# Procedure, shortened: as §1
# PIP5K3 = molecular target: T8, PIP5K3 (Homo sapiens, UniProt Q9Y2I7); conditions: ATP
# T8 construct: endogenous in cells; host or cells: PANC-1 cell lysate
# Procedure, shortened: as §1
# CDK5 = molecular target: T9, CDK5 (Homo sapiens, UniProt Q00535)
# T9 construct: endogenous in cells; host or cells: PANC-1 cell lysate
# T9 sequence (Q00535 whole entry): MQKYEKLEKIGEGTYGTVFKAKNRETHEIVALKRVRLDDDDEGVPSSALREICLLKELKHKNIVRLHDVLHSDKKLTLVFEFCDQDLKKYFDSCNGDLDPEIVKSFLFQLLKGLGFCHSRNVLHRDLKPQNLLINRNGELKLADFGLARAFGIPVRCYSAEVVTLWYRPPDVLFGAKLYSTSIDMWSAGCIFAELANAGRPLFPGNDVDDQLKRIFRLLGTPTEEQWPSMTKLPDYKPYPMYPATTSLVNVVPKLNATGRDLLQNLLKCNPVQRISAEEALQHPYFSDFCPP
# Procedure, shortened: as §1
# PKN1 = molecular target: T10, PKN1 (Homo sapiens, UniProt Q16512)
# T10 construct: endogenous in cells; host or cells: PANC-1 cell lysate
# T10 sequence (Q16512 whole entry): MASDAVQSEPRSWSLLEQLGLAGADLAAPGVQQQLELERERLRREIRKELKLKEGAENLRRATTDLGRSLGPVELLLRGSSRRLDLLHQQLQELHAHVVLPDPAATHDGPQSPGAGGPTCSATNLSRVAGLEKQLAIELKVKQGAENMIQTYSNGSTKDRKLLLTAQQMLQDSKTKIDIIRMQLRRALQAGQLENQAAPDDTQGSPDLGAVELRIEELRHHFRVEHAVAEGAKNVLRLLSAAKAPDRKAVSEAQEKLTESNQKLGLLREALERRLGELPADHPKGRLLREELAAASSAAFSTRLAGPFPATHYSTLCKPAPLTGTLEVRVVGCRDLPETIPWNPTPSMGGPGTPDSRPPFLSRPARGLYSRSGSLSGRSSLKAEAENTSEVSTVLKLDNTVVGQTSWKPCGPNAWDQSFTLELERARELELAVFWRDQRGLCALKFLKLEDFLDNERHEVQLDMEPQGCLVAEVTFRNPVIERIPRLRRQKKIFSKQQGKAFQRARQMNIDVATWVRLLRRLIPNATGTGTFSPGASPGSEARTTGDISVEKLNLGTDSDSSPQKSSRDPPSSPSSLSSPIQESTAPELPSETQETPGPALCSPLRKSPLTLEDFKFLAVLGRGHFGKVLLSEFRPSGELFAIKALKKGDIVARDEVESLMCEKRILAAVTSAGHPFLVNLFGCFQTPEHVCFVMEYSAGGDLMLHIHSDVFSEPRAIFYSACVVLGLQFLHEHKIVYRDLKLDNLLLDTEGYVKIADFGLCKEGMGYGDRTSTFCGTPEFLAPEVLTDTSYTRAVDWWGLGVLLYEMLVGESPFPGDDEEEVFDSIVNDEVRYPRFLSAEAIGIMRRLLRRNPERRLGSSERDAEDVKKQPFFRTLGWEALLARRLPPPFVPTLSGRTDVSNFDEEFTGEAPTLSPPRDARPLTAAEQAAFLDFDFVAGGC
# Procedure, shortened: as §1
# RIPK1 = molecular target: T11, RIPK1 (Homo sapiens, UniProt Q13546); conditions: Lys2
# T11 construct: endogenous in cells; host or cells: PANC-1 cell lysate
# Procedure, shortened: as §1
# CaMKK2 = molecular target: T12, CaMKK2 (Homo sapiens, UniProt Q96RR4)
# T12 construct: endogenous in cells; host or cells: PANC-1 cell lysate
# T12 sequence (Q96RR4 whole entry): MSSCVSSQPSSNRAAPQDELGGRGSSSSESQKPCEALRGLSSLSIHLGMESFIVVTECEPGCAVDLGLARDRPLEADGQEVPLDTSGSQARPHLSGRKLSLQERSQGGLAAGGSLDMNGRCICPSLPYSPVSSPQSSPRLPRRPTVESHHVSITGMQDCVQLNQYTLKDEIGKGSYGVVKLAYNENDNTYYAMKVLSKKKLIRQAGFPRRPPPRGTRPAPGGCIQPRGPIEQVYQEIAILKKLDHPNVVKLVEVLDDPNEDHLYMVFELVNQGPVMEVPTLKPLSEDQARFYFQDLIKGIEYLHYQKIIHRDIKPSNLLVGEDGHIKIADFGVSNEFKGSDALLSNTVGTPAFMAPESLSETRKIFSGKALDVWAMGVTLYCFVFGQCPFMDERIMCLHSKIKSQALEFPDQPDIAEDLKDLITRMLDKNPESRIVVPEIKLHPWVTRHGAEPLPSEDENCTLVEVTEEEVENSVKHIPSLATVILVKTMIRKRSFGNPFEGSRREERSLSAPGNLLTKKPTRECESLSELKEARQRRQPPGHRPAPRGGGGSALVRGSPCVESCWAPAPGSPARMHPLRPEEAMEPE
# Procedure, shortened: as §1
# CK1g2 = molecular target: T13, CK1g2 (Homo sapiens, UniProt P78368); conditions: Lys2
# T13 construct: endogenous in cells; host or cells: PANC-1 cell lysate
# Procedure, shortened: as §1
# MARK3, MARK4 = conditions: 5 µM; Lys1; EVAIKIIDK
# Procedure, shortened: as §1
# LATS1 = molecular target: T14, LATS1 (Homo sapiens, UniProt O95835)
# T14 construct: we opted to conduct a kinome screen (KiNativ) in PANC-1 cell lysates; endogenous in cells; host or cells: PANC-1 cell lysate
# T14 sequence (O95835 whole entry): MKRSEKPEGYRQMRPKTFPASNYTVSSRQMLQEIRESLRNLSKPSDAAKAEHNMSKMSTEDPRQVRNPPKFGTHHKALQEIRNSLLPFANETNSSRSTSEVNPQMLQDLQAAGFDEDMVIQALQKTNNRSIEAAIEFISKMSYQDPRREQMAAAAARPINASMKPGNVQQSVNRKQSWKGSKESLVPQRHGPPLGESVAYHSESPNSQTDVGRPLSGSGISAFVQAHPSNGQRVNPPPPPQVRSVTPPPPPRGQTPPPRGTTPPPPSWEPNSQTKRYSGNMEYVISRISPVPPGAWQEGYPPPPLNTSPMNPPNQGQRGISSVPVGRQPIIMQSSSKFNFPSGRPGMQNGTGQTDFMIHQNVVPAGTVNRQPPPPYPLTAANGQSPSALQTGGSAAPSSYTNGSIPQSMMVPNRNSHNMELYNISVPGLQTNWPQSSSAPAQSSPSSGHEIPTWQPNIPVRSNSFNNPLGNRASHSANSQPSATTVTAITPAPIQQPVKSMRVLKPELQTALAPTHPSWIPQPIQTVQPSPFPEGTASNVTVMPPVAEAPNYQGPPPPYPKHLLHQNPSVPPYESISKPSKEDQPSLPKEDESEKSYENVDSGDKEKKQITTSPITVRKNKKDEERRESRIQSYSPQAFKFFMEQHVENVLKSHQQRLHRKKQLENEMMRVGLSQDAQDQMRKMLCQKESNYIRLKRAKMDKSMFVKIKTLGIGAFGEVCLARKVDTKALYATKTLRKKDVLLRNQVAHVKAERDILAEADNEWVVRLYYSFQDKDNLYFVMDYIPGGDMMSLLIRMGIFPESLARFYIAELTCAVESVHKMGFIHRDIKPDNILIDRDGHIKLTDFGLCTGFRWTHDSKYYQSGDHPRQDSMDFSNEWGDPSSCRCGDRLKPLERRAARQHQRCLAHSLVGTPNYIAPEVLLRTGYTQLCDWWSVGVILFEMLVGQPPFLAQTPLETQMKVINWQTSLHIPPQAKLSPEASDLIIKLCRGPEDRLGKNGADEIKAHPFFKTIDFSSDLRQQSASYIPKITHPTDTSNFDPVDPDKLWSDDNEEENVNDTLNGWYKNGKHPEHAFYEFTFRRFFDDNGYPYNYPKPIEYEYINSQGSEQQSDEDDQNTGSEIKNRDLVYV
# Procedure, shortened: as §1
# CLK3 = molecular target: T15, CLK3 (Homo sapiens, UniProt P49761)
# T15 construct: endogenous in cells; host or cells: PANC-1 cell lysate
# T15 sequence (P49761 whole entry): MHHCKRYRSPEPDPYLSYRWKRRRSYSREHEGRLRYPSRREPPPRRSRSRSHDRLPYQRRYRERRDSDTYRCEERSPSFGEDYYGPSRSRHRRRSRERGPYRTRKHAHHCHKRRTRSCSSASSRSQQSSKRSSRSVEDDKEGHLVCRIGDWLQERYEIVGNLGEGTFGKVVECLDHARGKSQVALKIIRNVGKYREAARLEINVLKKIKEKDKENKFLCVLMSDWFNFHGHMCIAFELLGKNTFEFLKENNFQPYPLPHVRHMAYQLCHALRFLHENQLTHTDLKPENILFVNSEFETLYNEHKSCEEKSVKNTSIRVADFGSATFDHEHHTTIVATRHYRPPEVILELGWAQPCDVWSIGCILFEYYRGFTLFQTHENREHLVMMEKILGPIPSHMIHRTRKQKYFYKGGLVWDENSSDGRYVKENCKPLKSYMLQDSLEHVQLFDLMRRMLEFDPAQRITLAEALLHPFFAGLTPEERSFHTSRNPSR
# Procedure, shortened: as §1
# QSK = molecular target: T16, QSK (Homo sapiens, UniProt Q9Y2K2); conditions: Lys1
# T16 construct: endogenous in cells; host or cells: PANC-1 cell lysate
# Procedure, shortened: as §1
# IRAK4 = molecular target: T17, IRAK4 (Homo sapiens, UniProt Q9NWZ3)
# T17 construct: we opted to conduct a kinome screen (KiNativ) in PANC-1 cell lysates; endogenous in cells; host or cells: PANC-1 cell lysate
# T17 sequence (Q9NWZ3 whole entry): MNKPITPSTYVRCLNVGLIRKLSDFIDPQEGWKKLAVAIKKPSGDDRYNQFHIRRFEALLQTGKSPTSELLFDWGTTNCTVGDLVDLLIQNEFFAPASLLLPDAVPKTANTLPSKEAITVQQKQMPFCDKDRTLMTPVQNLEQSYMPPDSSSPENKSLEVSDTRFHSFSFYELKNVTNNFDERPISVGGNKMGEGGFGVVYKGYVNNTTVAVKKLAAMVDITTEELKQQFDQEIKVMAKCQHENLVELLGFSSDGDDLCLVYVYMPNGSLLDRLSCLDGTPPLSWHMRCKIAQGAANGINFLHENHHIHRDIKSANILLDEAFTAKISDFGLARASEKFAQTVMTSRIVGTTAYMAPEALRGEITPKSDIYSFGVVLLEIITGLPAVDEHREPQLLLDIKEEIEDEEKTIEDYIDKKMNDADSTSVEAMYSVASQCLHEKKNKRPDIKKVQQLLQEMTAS
# Procedure, shortened: as §1
# PEK = molecular target: T18, PEK (Homo sapiens, UniProt Q9NZJ5); conditions: Lys2
# T18 construct: endogenous in cells; host or cells: PANC-1 cell lysate
# Procedure, shortened: as §1
# MLKL = molecular target: T19, MLKL (Homo sapiens, UniProt Q8NB16); conditions: Lys1
# T19 construct: endogenous in cells; host or cells: PANC-1
# Procedure, shortened: as §1
# AMPKa1, AMPKa2 = conditions: 5 µM
# Procedure, shortened: as §1
# HRI = molecular target: T20, HRI (Homo sapiens, UniProt Q9BQI3); conditions: ATP Loop
# T20 construct: we opted to conduct a kinome screen (KiNativ) in PANC-1 cell lysates; endogenous in cells; host or cells: PANC-1 cell lysate
# Procedure, shortened: as §1
# PFTAIRE2 = molecular target: T21, PFTAIRE2 (Homo sapiens, UniProt Q96Q40); conditions: Lys2
# T21 construct: endogenous in cells; host or cells: PANC-1 cell lysate
# Procedure, shortened: as §1
structure (smiles),measurement,setting,value
"Cn1cc(-c2cnc3ccc(NC(=O)Nc4ccc(F)c(C(F)(F)F)c4)cc3n2)cn1 [51-106, 1-(4-Fluoro-3-(trifluoromethyl)phenyl)-3-(3-(1-methyl-1H-pyrazol-4-yl)quinoxalin-6-yl)urea]",inhibition at 5 µM,Wee1,2.2%
same,inhibition at 5 µM,PITSLRE,≤ 0%
same,inhibition at 5 µM,p38b,≤ 0%
same,inhibition at 5 µM,Erk1,≤ 0%
same,inhibition at 5 µM,CLK2,≤ 0%
same,% Inhibition,"MST3, MST4, YSK1",NB (NB = No Binding (≤ 0))
same,inhibition at 5 µM,AKT1,≤ 0%
same,inhibition at 5 µM,"SNRK; Lys1, VAVKVIDK",≤ 0%
same,inhibition at 5 µM,"SNRK; Lys2, DLKPENVVFFEK",0.4%
same,inhibition at 5 µM,RSK1 domain2,6.9%
same,% Inhibition,"BRAF, RAF1",12.7%
same,inhibition at 5 µM,PIP5K3,≤ 0%
same,inhibition at 5 µM,"CDK5; Lys1, NRETHEIVALKR",≤ 0%
same,inhibition at 5 µM,"CDK5; Lys2, DLKPQNLLINR",6.5%
same,inhibition at 5 µM,"PKN1; Lys1, VLLSEFRPSGELFAIKALK",≤ 0%
same,inhibition at 5 µM,"PKN1; Lys2, DLKLDNLLLDTEGYVK",14.3%
same,inhibition at 5 µM,RIPK1,3.7%
same,inhibition at 5 µM,"CaMKK2; Lys1, LAYNENDNTYYAMKVLSK",2.6%
same,inhibition at 5 µM,"CaMKK2; Lys2, DIKPSNLLVGEDGHIK",≤ 0%
same,inhibition at 5 µM,CK1g2,≤ 0%
same,% Inhibition,"MARK3, MARK4",NB (NB = No Binding (≤ 0))
same,% Inhibition,"LATS1; 5 µM, Lys2, DIKPDNILIDR",NB (NB = No Binding (≤ 0))
same,inhibition at 5 µM,"LATS1; Lys1, […]",≤ 0%
same,inhibition at 5 µM,"CLK3; ATP Loop, YEIVGNLGEGTFGKVVECLDHAR",≤ 0%
same,inhibition at 5 µM,"CLK3; Lys2, FLHENQLTHTDLKPENILFVNSEFETLYNEHK",4.4%
same,inhibition at 5 µM,QSK,≤ 0%
same,inhibition at 5 µM,"IRAK4; Lys1, GYVNNTTVAVKK",≤ 0%
same,inhibition at 5 µM,"IRAK4; Lys2, DIKSANILLDEAFTAK",1.2%
same,inhibition at 5 µM,PEK,10.9%
same,inhibition at 5 µM,MLKL,≤ 0%
same,% Inhibition,"AMPKa1, AMPKa2; Lys1, VAVKILNR",7.5%
same,% Inhibition,"AMPKa1, AMPKa2; Lys2, DLKPENVLLDAHMNAK",8.7%
same,inhibition at 5 µM,HRI,≤ 0%
same,inhibition at 5 µM,PFTAIRE2,≤ 0%
